System: MV-4-11 cells
Assay: Gene expression microarray analysis (Affymetrix PrimeView) and GSEA
Format: cell-based, human
Set-up: RFU PODN (11730768_x_at) / Fold change /veh PODN (11730768_x_at) / RFU LINC00158 (11744669_a_at) / Fold change /veh LINC00158 (11744669_a_at) / RFU DUSP10 (11751237_a_at) / Fold change /veh DUSP10 (11751237_a_at) / RFU ID3 (11757404_x_at) / Fold change /veh ID3 (11757404_x_at) / RFU PLEKHG5 (11737974_s_at) / Fold change /veh PLEKHG5 (11737974_s_at) / RFU LRRC4B (11730491_at) / Fold change /veh LRRC4B (11730491_at) / RFU GIMAP4 (11747438_a_at) / Fold change /veh GIMAP4 (11747438_a_at) / RFU KRT8 (11758183_x_at) / Fold change /veh KRT8 (11758183_x_at) / RFU CNN1 (11734310_a_at) / Fold change /veh CNN1 (11734310_a_at) / RFU VPS37D (11726825_at) / Fold change /veh VPS37D (11726825_at) / RFU C10orf10 (11716522_x_at) / Fold change /veh C10orf10 (11716522_x_at) / RFU KIR2DL2 /// KIR2DL4 /// KIR2DL5A /// KIR2DL5B /// KIR2DS1 /// KIR2DS2 /// KIR2DS3 /// KIR2DS4 /// KIR3DL3 /// KIR3DL3 /// KIR3DS1 (11738374_at) / Fold change /veh KIR2DL2 /// KIR2DL4 /// KIR2DL5A /// KIR2DL5B /// KIR2DS1 /// KIR2DS2 /// KIR2DS3 /// KIR2DS4 /// KIR3DL3 /// KIR3DL3 /// KIR3DS1 (11738374_at) / RFU C1QL1 (11718748_at) / Fold change /veh C1QL1 (11718748_at) / RFU TMPRSS4 (11747572_a_at) / Fold change /veh TMPRSS4 (11747572_a_at) / RFU HAMP (11756126_x_at) / Fold change /veh HAMP (11756126_x_at) / RFU RNFT2 (11725882_a_at) / Fold change /veh RNFT2 (11725882_a_at) / RFU NR4A2 (11747474_a_at) / Fold change /veh NR4A2 (11747474_a_at) / RFU ABCC12 (11746883_a_at) / Fold change /veh ABCC12 (11746883_a_at) / RFU TMEM136 (11760407_x_at) / Fold change /veh TMEM136 (11760407_x_at) / RFU CLDN22 /// WWC2 (11732394_at) / Fold change /veh CLDN22 /// WWC2 (11732394_at) / RFU HLA-DPB1 (11760878_x_at) / Fold change /veh HLA-DPB1 (11760878_x_at) / RFU SPINT1 (11716480_a_at) / Fold change /veh SPINT1 (11716480_a_at) / RFU GAP43 (11754022_s_at) / Fold change /veh GAP43 (11754022_s_at) / RFU A4GNT (11735810_at) / Fold change /veh A4GNT (11735810_at) / RFU PRB3 (11715151_x_at) / Fold change /veh PRB3 (11715151_x_at) / RFU TUBB4B (11761932_at) / Fold change /veh TUBB4B (11761932_at) / RFU CAPN14 (11732068_a_at) / Fold change /veh CAPN14 (11732068_a_at) / RFU TMCC2 (11721928_a_at) / Fold change /veh TMCC2 (11721928_a_at) / RFU IRGQ (11745062_a_at) / Fold change /veh IRGQ (11745062_a_at) / RFU FAM174B (11720279_a_at) / Fold change /veh FAM174B (11720279_a_at) / RFU TMPRSS4 (11748680_a_at) / Fold change /veh TMPRSS4 (11748680_a_at) / RFU FAM212B (11763350_a_at) / Fold change /veh FAM212B (11763350_a_at) / RFU PLEKHG5 (11743358_a_at) / Fold change /veh PLEKHG5 (11743358_a_at) / RFU ZSCAN30 (11745921_a_at) / Fold change /veh ZSCAN30 (11745921_a_at) / RFU CMKLR1 (11741424_a_at) / Fold change /veh CMKLR1 (11741424_a_at) / RFU LOC101060620 /// MAPK8IP1 (11723275_at) / Fold change /veh LOC101060620 /// MAPK8IP1 (11723275_at) / RFU SPTSSB (11747773_x_at) / Fold change /veh SPTSSB (11747773_x_at) / RFU PRSS12 (11739890_at) / Fold change /veh PRSS12 (11739890_at) / RFU BIN1 (11741810_x_at) / Fold change /veh BIN1 (11741810_x_at) / RFU WNT11 (11732464_a_at) / Fold change /veh WNT11 (11732464_a_at) / RFU C10orf10 (11716521_a_at) / Fold change /veh C10orf10 (11716521_a_at) / RFU C5orf56 (11738089_at) / Fold change /veh C5orf56 (11738089_at) / RFU CYB561 (11721691_x_at) / Fold change /veh CYB561 (11721691_x_at) / RFU ANKRD19P (11752326_a_at) / Fold change /veh ANKRD19P (11752326_a_at) / RFU OR2T12 /// OR2T33 /// OR2T8 (11738714_s_at) / Fold change /veh OR2T12 /// OR2T33 /// OR2T8 (11738714_s_at) / RFU VCAN (11748164_a_at) / Fold change /veh VCAN (11748164_a_at) / RFU JSRP1 (11732532_at) / Fold change /veh JSRP1 (11732532_at) / RFU KRTAP10-11 (11738290_x_at) / Fold change /veh KRTAP10-11 (11738290_x_at) / RFU MYO3A (11730013_a_at) / Fold change /veh MYO3A (11730013_a_at) / RFU EBF3 (11725865_a_at) / Fold change /veh EBF3 (11725865_a_at) / RFU CAMK2N1 (11719241_x_at) / Fold change /veh CAMK2N1 (11719241_x_at) / RFU C5orf56 (11738088_a_at) / Fold change /veh C5orf56 (11738088_a_at) / RFU OLFML3 (11715873_a_at) / Fold change /veh OLFML3 (11715873_a_at) / RFU LOC100653217 /// NTM (11731650_a_at) / Fold change /veh LOC100653217 /// NTM (11731650_a_at) / RFU MAPK11 (11762145_a_at) / Fold change /veh MAPK11 (11762145_a_at) / RFU FIZ1 (11724087_x_at) / Fold change /veh FIZ1 (11724087_x_at) / RFU OASL (11726364_x_at) / Fold change /veh OASL (11726364_x_at) / RFU SOX15 (11748057_x_at) / Fold change /veh SOX15 (11748057_x_at) / RFU CD79A (11719716_a_at) / Fold change /veh CD79A (11719716_a_at) / RFU HIST1H1D (11736915_at) / Fold change /veh HIST1H1D (11736915_at) / RFU CASKIN2 (11723855_a_at) / Fold change /veh CASKIN2 (11723855_a_at) / RFU LOC730098 (11760151_x_at) / Fold change /veh LOC730098 (11760151_x_at) / RFU OR4N2 (11742367_at) / Fold change /veh OR4N2 (11742367_at) / RFU PRRT2 (11749266_a_at) / Fold change /veh PRRT2 (11749266_a_at) / RFU SNX32 (11753110_a_at) / Fold change /veh SNX32 (11753110_a_at) / RFU CDHR5 (11726645_a_at) / Fold change /veh CDHR5 (11726645_a_at) / RFU RCAN1 (11760418_a_at) / Fold change /veh RCAN1 (11760418_a_at) / RFU FAM167A (11723789_a_at) / Fold change /veh FAM167A (11723789_a_at) / RFU FAM26E (11764081_at) / Fold change /veh FAM26E (11764081_at) / RFU ISYNA1 (11749810_s_at) / Fold change /veh ISYNA1 (11749810_s_at) / RFU ACY1 (11761880_at) / Fold change /veh ACY1 (11761880_at) / RFU 11764098_at / Fold change /veh 11764098_at / RFU SAMD14 (11745864_x_at) / Fold change /veh SAMD14 (11745864_x_at) / RFU NPB (11741838_a_at) / Fold change /veh NPB (11741838_a_at) / RFU TMPRSS6 (11731388_a_at) / Fold change /veh TMPRSS6 (11731388_a_at) / RFU KRTAP10-2 (11738614_at) / Fold change /veh KRTAP10-2 (11738614_at) / RFU ARHGAP8 /// PRR5-ARHGAP8 (11727945_x_at) / Fold change /veh ARHGAP8 /// PRR5-ARHGAP8 (11727945_x_at) / RFU KRTAP5-7 /// NADSYN1 (11734609_at) / Fold change /veh KRTAP5-7 /// NADSYN1 (11734609_at) / RFU RASL12 (11751679_a_at) / Fold change /veh RASL12 (11751679_a_at) / RFU CDKN2B (11736163_a_at) / Fold change /veh CDKN2B (11736163_a_at) / RFU PRF1 (11729649_at) / Fold change /veh PRF1 (11729649_at) / RFU, ZNF638 /// ZNF638-IT1 / Fold change vs veh, ZNF638 /// ZNF638-IT1 / RFU, PANK3 / Fold change vs veh, PANK3 / RFU, SH3YL1 / Fold change vs veh, SH3YL1 / RFU, ZEB2 / Fold change vs veh, ZEB2 / RFU, NRIP1 / Fold change vs veh, NRIP1 / RFU, PTTG1IP / Fold change vs veh, PTTG1IP / RFU, CAPN2 / Fold change vs veh, CAPN2 / RFU, MED14 / Fold change vs veh, MED14 / RFU, SNORA58 / Fold change vs veh, SNORA58 / RFU, C1orf63 / Fold change vs veh, C1orf63 / RFU, LRRFIP1 / Fold change vs veh, LRRFIP1 / RFU, NDUFAF7 / Fold change vs veh, NDUFAF7 / RFU, SLC12A2 / Fold change vs veh, SLC12A2 / RFU, IBTK / Fold change vs veh, IBTK / RFU, ESF1 / Fold change vs veh, ESF1 / Fold change vs veh, TMEM50B / RFU, TAOK1 / Fold change vs veh, TAOK1 / RFU, ACBD3 / Fold change vs veh, ACBD3 / RFU, TMA16 / Fold change vs veh, TMA16 / RFU, RWDD3 / Fold change vs veh, RWDD3 / RFU, BCAT1 / Fold change vs veh, BCAT1 / RFU, EDEM3 / Fold change vs veh, EDEM3 / RFU, TMEM33 / Fold change vs veh, TMEM33 / RFU, WDR75 / Fold change vs veh, WDR75 / RFU, AHCTF1 / Fold change vs veh, AHCTF1 / RFU, TFRC / Fold change vs veh, TFRC / RFU, ZDHHC17 / Fold change vs veh, ZDHHC17 / RFU, NOM1 / Fold change vs veh, NOM1 / RFU, ARL8B / Fold change vs veh, ARL8B / RFU, ZBTB11 / Fold change vs veh, ZBTB11 / RFU, TAMM41 / Fold change vs veh, TAMM41 / RFU, KIAA1704 /// LOC100996395 / Fold change vs veh, KIAA1704 /// LOC100996395 / RFU, ING1 / Fold change vs veh, ING1 / RFU, TRMT61B / Fold change vs veh, TRMT61B / RFU, FUBP3 / Fold change vs veh, FUBP3 / RFU, TP53 / Fold change vs veh, TP53 / RFU, TNKS2 / Fold change vs veh, TNKS2 / RFU, ZFP14 / Fold change vs veh, ZFP14 / RFU, ACTR2 / Fold change vs veh, ACTR2 / RFU, PPP3R1 / Fold change vs veh, PPP3R1 / RFU, PIK3R1 / Fold change vs veh, PIK3R1 / RFU, HNRNPA1 / Fold change vs veh, HNRNPA1 / RFU, RNF170 / Fold change vs veh, RNF170 / RFU, ZNF28 / Fold change vs veh, ZNF28 / RFU, RNGTT / Fold change vs veh, RNGTT / RFU, OGT / Fold change vs veh, OGT / RFU, BRD1 / Fold change vs veh, BRD1 / RFU, MARS / Fold change vs veh, MARS / RFU, ZNF655 / Fold change vs veh, ZNF655 / RFU, FAHD1 / Fold change vs veh, FAHD1 / RFU, BDP1 / Fold change vs veh, BDP1 / RFU, LRRCC1 / Fold change vs veh, LRRCC1 / RFU, ARID1A / Fold change vs veh, ARID1A / RFU, ZNF146 / Fold change vs veh, ZNF146 / RFU, ZNF330 / Fold change vs veh, ZNF330 / RFU, GPN3 / Fold change vs veh, GPN3 / RFU, C9orf123 / Fold change vs veh, C9orf123 / RFU, N4BP2L2 / Fold change vs veh, N4BP2L2 / RFU, ARFIP1 / Fold change vs veh, ARFIP1 / RFU, FAM179B / Fold change vs veh, FAM179B / RFU, BCL10 / Fold change vs veh, BCL10 / RFU, UHRF1BP1L / Fold change vs veh, UHRF1BP1L / RFU, BET1 / Fold change vs veh, BET1 / RFU, CNOT2 / Fold change vs veh, CNOT2 / RFU, ZNF268 / Fold change vs veh, ZNF268 / Fold change vs veh, ZNF507 / RFU, DGCR2 / Fold change vs veh, DGCR2 / RFU, WDSUB1 / Fold change vs veh, WDSUB1 / Fold change vs veh, HSP90B1 /// MIR3652 / RFU, ADSS / Fold change vs veh, ADSS / RFU, GK / Fold change vs veh, GK / RFU, ZNF148 / Fold change vs veh, ZNF148 / RFU, TAF9 / Fold change vs veh, TAF9 / RFU, SLC1A5 / Fold change vs veh, SLC1A5 / RFU, SLMO2 / Fold change vs veh, SLMO2 / RFU, ABCC4 / Fold change vs veh, ABCC4 / RFU, LOC101060439 /// RAP1B / Fold change vs veh, LOC101060439 /// RAP1B / RFU, RFX7 / Fold change vs veh, RFX7 / RFU, GTPBP10 / Fold change vs veh, GTPBP10 / RFU, CNEP1R1 / Fold change vs veh, CNEP1R1 / RFU, BIVM-ERCC5 /// ERCC5 / Fold change vs veh, BIVM-ERCC5 /// ERCC5 / RFU, ILF3 / Fold change vs veh, ILF3 / RFU 11762660_at / Fold change /veh 11762660_at / RFU VCAN (11757783_s_at) / Fold change /veh VCAN (11757783_s_at) / RFU DDX43 (11728927_at) / Fold change /veh DDX43 (11728927_at) / RFU KRT8 (11758188_x_at) / Fold change /veh KRT8 (11758188_x_at) / RFU NKD1 (11759106_at) / Fold change /veh NKD1 (11759106_at) / RFU SRD5A1 (11742802_a_at) / Fold change /veh SRD5A1 (11742802_a_at) / RFU TPSAB1 /// TPSB2 (11721975_s_at) / Fold change /veh TPSAB1 /// TPSB2 (11721975_s_at) / RFU GSTM3 (11746129_a_at) / Fold change /veh GSTM3 (11746129_a_at) / RFU IL23R (11737362_x_at) / Fold change /veh IL23R (11737362_x_at) / RFU TMEM51 (11727254_a_at) / Fold change /veh TMEM51 (11727254_a_at) / RFU PIWIL2 (11732686_x_at) / Fold change /veh PIWIL2 (11732686_x_at) / RFU ORM1 (11744905_x_at) / Fold change /veh ORM1 (11744905_x_at) / RFU CCDC152 (11743942_at) / Fold change /veh CCDC152 (11743942_at) / RFU ECM1 (11717891_a_at) / Fold change /veh ECM1 (11717891_a_at) / RFU IL23R (11748794_a_at) / Fold change /veh IL23R (11748794_a_at) / RFU TNFAIP8L3 (11732012_x_at) / Fold change /veh TNFAIP8L3 (11732012_x_at) / RFU MBOAT4 (11741988_at) / Fold change /veh MBOAT4 (11741988_at) / RFU 11764193_at / Fold change /veh 11764193_at / RFU TMEM53 (11763286_at) / Fold change /veh TMEM53 (11763286_at) / RFU MAGEB2 (11727129_at) / Fold change /veh MAGEB2 (11727129_at) / RFU TMEM200A (11744735_a_at) / Fold change /veh TMEM200A (11744735_a_at) / RFU CCDC152 (11751479_a_at) / Fold change /veh CCDC152 (11751479_a_at) / RFU FAM211A (11726209_a_at) / Fold change /veh FAM211A (11726209_a_at) / RFU RGS16 (11746705_a_at) / Fold change /veh RGS16 (11746705_a_at) / RFU VCAN (11755009_s_at) / Fold change /veh VCAN (11755009_s_at) / RFU RHOB (11743442_s_at) / Fold change /veh RHOB (11743442_s_at) / RFU RGS16 (11720943_a_at) / Fold change /veh RGS16 (11720943_a_at) / RFU RGS16 (11720944_at) / Fold change /veh RGS16 (11720944_at) / RFU, VPS4B / Fold change vs veh, VPS4B / RFU, CREB1 / Fold change vs veh, CREB1 / RFU, DNAJC13 / Fold change vs veh, DNAJC13 / RFU, GNAQ / Fold change vs veh, GNAQ / RFU, CDK5R1 / Fold change vs veh, CDK5R1 / RFU, ZRANB3 / Fold change vs veh, ZRANB3 / RFU, CUL4A / Fold change vs veh, CUL4A / RFU, CCNY / Fold change vs veh, CCNY / RFU, UFL1 / Fold change vs veh, UFL1 / RFU, COG3 / Fold change vs veh, COG3 / RFU, DIAPH2 / Fold change vs veh, DIAPH2 / RFU, SKA2 / Fold change vs veh, SKA2 / RFU, AFF3 / Fold change vs veh, AFF3 / RFU, LMF1 / Fold change vs veh, LMF1 / RFU, IPO11 / Fold change vs veh, IPO11 / RFU, DFFB / Fold change vs veh, DFFB / RFU, FOXP1 / Fold change vs veh, FOXP1 / RFU, CARD8 / Fold change vs veh, CARD8 / RFU, STRN3 / Fold change vs veh, STRN3 / RFU, ADK / Fold change vs veh, ADK / RFU, RASSF2 / Fold change vs veh, RASSF2 / RFU, WIPF1 / Fold change vs veh, WIPF1 / RFU, LARP1B / Fold change vs veh, LARP1B / RFU, RASA1 / Fold change vs veh, RASA1 / RFU, RB1 / Fold change vs veh, RB1 / RFU, PPFIA1 / Fold change vs veh, PPFIA1 / RFU, MAT2A / Fold change vs veh, MAT2A / RFU, CCT5 / Fold change vs veh, CCT5 / RFU, WDR92 / Fold change vs veh, WDR92 / RFU, CUX1 / Fold change vs veh, CUX1 / RFU, TTC7A / Fold change vs veh, TTC7A / RFU, TMEM135 / Fold change vs veh, TMEM135 / RFU, DEPTOR / Fold change vs veh, DEPTOR / RFU, CPM / Fold change vs veh, CPM / RFU, DNAJB6 / Fold change vs veh, DNAJB6 / RFU, CACNA2D3 / Fold change vs veh, CACNA2D3 / RFU, DTX4 / Fold change vs veh, DTX4 / RFU, TFCP2 / Fold change vs veh, TFCP2 / RFU, GMCL1 /// GMCL1P1 / Fold change vs veh, GMCL1 /// GMCL1P1 / RFU, AEBP2 / Fold change vs veh, AEBP2 / RFU, SNHG1 /// SNORD22 /// SNORD25 /// SNORD26 /// SNORD27 /// SNORD28 /// SNORD29 /// SNORD31 / Fold change vs veh, SNHG1 /// SNORD22 /// SNORD25 /// SNORD26 /// SNORD27 /// SNORD28 /// SNORD29 /// SNORD31 / Fold change (Aza/veh), C12orf56 (ProbeSet 11735607_a_at) / Fold change (ACY-1035/veh), C12orf56 (ProbeSet 11735607_a_at) / Fold change (Aza/veh), FGFR1OP (ProbeSet 11751329_s_at) / Fold change (ACY-1035/veh), FGFR1OP (ProbeSet 11751329_s_at) / Fold change (Aza/veh), VPS36 (ProbeSet 11739960_a_at) / Fold change (ACY-1035/veh), VPS36 (ProbeSet 11739960_a_at) / RFU SYPL1 (11715823_x_at) / Fold change /veh SYPL1 (11715823_x_at) / RFU IGFBP7 (11715501_s_at) / Fold change /veh IGFBP7 (11715501_s_at) / RFU REEP3 (11722064_at) / Fold change /veh REEP3 (11722064_at) / RFU IGLL1 (11728026_x_at) / Fold change /veh IGLL1 (11728026_x_at): dose or concentration left out as unconfirmed
Details: MV-4-11 cells, 48 hours

## Nc1ncn([C@@H]2O[C@H](CO)[C@@H](O)[C@H]2O)c(=O)n1 [azacitidine]
  Fold change /veh SNX32 (11753110_a_at): 1.11
